Tests used:
[1] = tested on: Ile164 receptor; conditions: cited from earlier work; for binding affinity: competition with [125I]cyp in the presence of GTP, Ile164 receptor
[2] = tested on: Ile164 receptor; conditions: Ile164 receptor compared to Thr164 receptor; cited from earlier work
[3] = tested on: human Ile164 receptor; conditions: transgenic mice overexpressing human Ile164 receptor in the heart compared to wild-type receptor; cited from earlier work
[4] = tested on: Thr164 receptor; conditions: COS-7 cells transiently transfected; salmeterol 10 minutes at 37 °C, perfused with saline 30 min; n = 5, p = 0.02

Row | salmeterol exosite binding [4] | Compound | binding affinity [1] | stimulation of adenylyl cyclase [2] | adenylyl cyclase activity in response to agonist [3] | binding curves ([1]; in the absence of GTP, Ile164 compared to Thr164 receptor (Figure 2))
1 | – | NC[C@H](O)c1ccc(O)c(O)c1 [norepinephrine] | small decrease in binding affinity | – | – | –
2 | – | CNC[C@H](O)c1ccc(O)c(O)c1 [epinephrine] | small decrease in binding affinity | decreased stimulation | – | –
3 | – | CC(C)NCC(O)c1ccc(O)c(O)c1 (stereo not shown) [isoproterenol] | small decrease in binding affinity | – | lowered activities | different between the two receptors
4 | 49 ± 4% | OCc1cc(C(O)CNCCCCCCOCCCCc2ccccc2)ccc1O (stereo not shown) [salmeterol] | – | – | – | –

— patent publication EP1169483B1, “VARIATION IN DRUG RESPONSE RELATED TO POLYMORPHISMS IN BETA2- ADRENERGIC RECEPTOR” (UNIVERSITY OF CINCINNATI, priority 1999, dated 2001)
